# Test results as given in patent publication US10519177B2, “Heterocyclic compounds and uses thereof” (Plexxikon Inc., priority 2013, dated 2019).
# Read-outs that look alike come from different tables or passages of the source.
# Columns and labels:
# BRD4-BD12 (1-477) = BRD4-BD12 (1-477) (Homo sapiens (Human), UniProt O60885); experiment: Alphascreen binding assay BRD4-BD12; conditions: BRD4(1 2) H4; read-out: Biochemical activity (IC50 μM) BRD4(1 2) H4
# Method: Binding of compounds of formula (I) with bromodomain 2, 3 4 was assessed using Alphascreen binding assay. The inhibition of the interaction between bromodomain and its acetylated target protein (Filippakopoulos P et al. 2012) was measured quantitatively using recombinant BRD proteins, an acetylated Histone 4 peptide and AlphaScreen™ technology. In absence of inhibition the BRD protein bound to AlphaScreen™ nickel chelate acceptor beads can interact with the acetylated Histone 4 peptide which is immobilized by the AlphaScreen™ Streptavidin coated beads. This interaction brings donor and acceptor beads in proximity. The close proximity allows the singlet oxygen produced by laser excitation of the donor beads to reach the acceptor beads and generate a luminescence signal.
# Recombinant human bromodomains containing the N-terminal bromodomain (BRD2-BD1 (71-194), BRD3-BD1 (24-144) and BRD4-BD1 (44-164)) or dual bromodomains (BRD4-BD12 (1-477), BRD4-BD12 (1-472)) were prepared and purified as described in protein expression and purification session. The peptide is human Histone H41-21K5AcK8AcK12AcK16Ac-Biotin (Anaspec CA, USA).
# Protocol for BRD2, BRD3 and BRD4 assay: All components are prepared in buffer composed of 50 mM HEPES pH 7.5, 100 mM NaCl, 0.01% bovine serum albumin (“BSA”), 0.01% Triton X-100, 2 mM dithiothreitol (“DTT”). 7 μL of Bromodomain protein and 7 μL of peptide are added to wells containing 1 μL of various concentrations of test compounds of formula (I) or DMSO vehicle in an Alphaplate (PerkinElmer GA, USA) and incubated for 1 hour at room temperature. 4 μL donor and acceptor bead mixture is then added with final concentrations of 7.5 μg/ml. 30 minutes after bead addition, Alpha signal is read on the Envision spectrometer (λEx 680 nm, λEm 520-620 nm). Final concentrations of bromodomain proteins and peptide are as shown below.
# All data was normalized to the mean of 16 high and 16 low control wells on each plate. A four parameter curve fit of the following formula was then applied: Y=a+(b−a)/(1+(x/c)^d) Where ‘a’ is the minimum, ‘b’ is the maximum, ‘c’ is the pIC50 and ‘d’ is the Hill slope. Protein Expression and Purification
# Recombinant human bromodomains containing the N-terminal bromodomain (BRD2-BD1 (71-194), BRD3-BD1 (24-144) and BRD4-BD1 (44-164)) or dual bromodomains (BRD4-BD12 (1-477), BRD4-BD12 (1-472)) were expressed in E. coli cells (in a modified pET vector) with an N-terminal six-His tag and purified using a combination of both IMAC (Ni-affinity) and size exclusion chromatography steps.
# Recombinant BRD proteins were expressed using the E. coli strain BL21-CodonPlus (DE3) (Agilent Technologies CA, USA). Cells were grown in Terrific Broth (TB) media to an OD600 of 1.2 at 37° C. at which temperature was reduced to 25° C., protein was induced with 1.0 mM ispropyl-β-D-thiogalactopyranoside (“IPTG”) for 12-18 hours and harvested by centrifugation at 8000×g for 20 minutes. Cells were re-suspended in 0.1M K2PO4 pH 8.0, 250 mM NaCl, 10% Glycerol, 0.75% NP-40, 25 mM Imidazole, 5 mM beta-mercaptoethanol (“BME”) with 0.2 mg/ml Lysosyme, 2.0 mM phenylmethanesulfonyl fluoride (“PMSF”), 25 μg/ml DNAse I, incubated on ice for 30 minutes and lyzed with a cell disruptor (MicroFluidics MA, USA). The lysate was clarified by centrifugation at 20,000×g for 2 hours. The protein was captured with Ni-NTA resin (Life Technologies, USA). Contaminating proteins were washed off with 25 mM Tris-HCl pH 8.3, 250 mM NaCl, 12% Glycerol and 50 mM Imidazole. Following 3× wash steps, protein was eluted step wise using a 50 mM HEPES pH 7.5, 500 mM NaCl and 400 mM Imidazole. The protein was further purified using Gel Filtration column 26/600 Superdex 200 (GE Biosciences NJ, USA) in 50 mM HEPES pH 7.5, 250 mM NaCl. The protein was aliquoted and flash-frozen in liquid Nitrogen.
# MV-4-11 cells = experiment: Oncology cell growth assay MV-4-11 (CellTiter Glo); format: cell-based
# Description: Published bromodomain inhibitors JQ1 and iBET 151 have shown activity in variety of cancer cells such leukemia and lymphoma, multiple myeloma cells, NUT midline carcinoma and glioblastoma cells (Dawson M A et al. 2011; Delmore J E 2011; Chen Z et al. 2013; Filippakopoulos P et al. 2010; Mertz J A et al. 2011; Ott C J et al. 2012). In this study, we test compounds in different cancer cell lines. MV-4-11 and MOLM-13 are AML cell lines harboring a MLL-AF4 and MLL-AF9 translocation, respectively. MM.1S is a multiple myeloma cell line. SK-N-AS, IMR-32 and SK-N-BE(2) are neuroblastoma cell lines. IMR-32 and SK-N-BE(2) cell lines harbor MYCN amplifications.
# MV-4-11, MM.1S, IMR-32, SK-N-AS and SK-N-BE(2) were obtained from ATCC (IL, USA) and MOLM-13 were purchased from DSMZ (Braunschweig, German). Cells are cultured as recommended by their sources. For growth inhibition studies 3000 cells are seeded in wells of a 96-well plate in 75 μL of culture media. After several hours, growth media containing compounds of formula (I) are added to the wells. Compound at a maximal concentration of 5 mM was serially diluted 1:3 for a total of 8 point titration with DMSO as a control. A 1 μL aliquot of each dilution point is added to 249 μL growth media and 75 μL is added to each well containing cells, providing 10 μM compound at the maximum concentration point. The final concentration of DMSO in all wells is 0.2%. Cells are incubated for 72 hours, and 25 μL of CellTiter Glo Reagent (Promega GA, USA) is added to each well. Plates are shaken for approximately 10 minutes and chemiluminescent signal is read on Tecan microplate reader. The measured luminescence correlates directly with cell number.
# All data is normalized to the mean of eight DMSO high control wells on each plate. A four parameter curve fit of the following formula was then applied: Y=a+(b−a)/(1+(x/c)^d) Where ‘a’ is the minimum, ‘b’ is the maximum, ‘c’ is the pIC50 and ‘d’ is the Hill slope. […] Myc Reporter Assay
# bromodomain = experiment: at least one of the bromodomain cell assays of Example 57; format: cell-based; conditions: read-out: IC50 in at least one of the bromodomain cell assays
# [1] = Homo sapiens, MV4-11, 72 h; MV-4-11, 3d growth; read-out: Cell activity (IC50 μM) MV-4-11 3d-Growth
# [2] = at least one of the bromodomain cell assays described in Example 57
# [3] = Homo sapiens, MV4-11, 72 h; read-out: Cell activity (IC50 μM) MV-4-11 3d-Growth
# [4] = Homo sapiens, MV4-11, 72 h, read-out: Cell activity (IC50 μM) MV-4-11 3d-Growth
SMILES,IC50 (BRD4-BD12 (1-477)),IC50 (MV-4-11 cells; [1]),IC50 (bromodomain; [2]),also measured
"COC(=O)c1ccc(-c2cn(Cc3ccncc3)c3cc(-c4c(C)noc4C)cnc23)cc1 [P-0936, methyl 4-[6-(3,5-dimethylisoxazol-4-yl)-1-(4-pyridylmethyl)pyrrolo[3,2-b]pyridin-3-yl]benzoate]",< 1 µM,< 1 µM,,
"Cc1noc(C)c1-c1cnc2c(-c3ccc(C(C)(C)C#N)cc3)cn(CC3(C)CCOCC3)c2c1 [P-0946, 2-[4-[6-(3,5-dimethylisoxazol-4-yl)-1-[(4-methyltetrahydropyran-4-yl)methyl]pyrrolo[3,2-b]pyridin-3-yl]phenyl]-2-methyl-propanenitrile]",< 1 µM,< 1 µM,,
"Cc1noc(C)c1-c1cnc2c(-c3ccc(COC(C)(C)C)cc3)cn(CC3CCC(F)(F)CC3)c2c1 [P-0910, 4-[3-[4-(tert-butoxymethyl)phenyl]-1-[(4,4-difluorocyclohexyl)methyl]pyrrolo [3,2-b]pyridin-6-yl]-3,5-dimethyl-isoxazole]",< 1 µM,< 1 µM,,
"Cc1noc(C)c1-c1cnc2c(-c3ccc(C(=O)O)cc3)cn(C(c3ccccn3)C3CCC3)c2c1 (stereo not shown) [P-1012, 4-[1-[cyclobutyl(2-pyridyl)methyl]-6-(3,5-dimethylisoxazol-4-yl)pyrrolo[3,2-b]pyridin-3-yl]benzoic acid]",< 1 µM,< 1 µM,,
"[2H]C([2H])(C1CCC(F)(F)CC1)n1cc(-c2cnn(CC(F)(F)F)c2)c2ncc(-c3c(C)noc3C)cc21 [P-0221, 4-[1-[dideuterio-(4,4-difluorocyclohexyl)methyl]-3-[1-(2,2,2-trifluoroethyl)pyrazol-4-yl]pyrrolo[3,2-b]pyridin-6-yl]-3,5-dimethyl-isoxazole]",,,< 10 µM,IC50 (MV-4-11 cells; [3]): < 1 µM
"[2H]c1c([2H])c([2H])c(C([2H])(n2cc(-c3ccc(C(=O)O)cc3)c3ncc(-c4c(C)noc4C)cc32)C([2H])([2H])[2H])c([2H])c1[2H] (stereo not shown) [P-0607, 4-[6-(3,5-dimethylisoxazol-4-yl)-1-[1,2,2,2-tetradeuterio-1-(2,3,4,5,6-pentadeuteriophenyl)ethyl]pyrrolo[3,2-b]pyridin-3-yl]benzoic acid]",,< 1 µM,< 10 µM,
"COc1ccc(-c2cnc3c(-c4cnn(C(F)F)c4)cn(CC4CCC(F)(F)CC4)c3c2)cn1 [P-0358, 1-[(4,4-difluorocyclohexyl)methyl]-3-[1-(difluoromethyl)pyrazol-4-yl]-6-(6-methoxy-3-pyridyl)pyrrolo[3,2-b]pyridine]",,,< 10 µM,IC50 (MV-4-11 cells; [3]): 10 to 200 µM
Cc1noc(C)c1-c1cnc2c(-c3cnn(C)c3)cn(C(=O)C3CCC(F)(F)CC3)c2c1 [P-0208],,,< 10 µM,IC50 (MV-4-11 cells; MV-4-11 3d-Growth; read-out: Cell activity (IC50 μM) MV-4-11 3d-Growth): 1 to 10 µM
"CNC(=O)c1ccc(-c2cnc3ccn(CC4CCC(F)(F)CC4)c3c2)cn1 [P-0359, 5-[1-[(4,4-difluorocyclohexyl)methyl]pyrrolo[3,2-b]pyridin-6-yl]-N-methyl-pyridine-2-carboxamide]",,,< 10 µM,IC50 (MV-4-11 cells; [3]): 10 to 200 µM
"[2H]c1c([2H])c([2H])c(C([2H])(n2cc(-c3ccc(C(=O)OC)cc3)c3ncc(-c4c(C)noc4C)cc32)C([2H])([2H])[2H])c([2H])c1[2H] (stereo not shown) [P-0605, methyl 4-[6-(3,5-dimethylisoxazol-4-yl)-1-[1,2,2,2-tetradideuterio-1-(2,3,4,5,6-pentadeuteriophenyl)ethyl]pyrrolo[3,2-b]pyridin-3-yl]benzoate]",,< 1 µM,< 10 µM,
"Cc1noc(C)c1-c1cnc2c(-c3ccc(C(=O)O)cc3)cn([C@@H](C)c3ccccn3)c2c1 [P-0511, 4-[6-(3,5-dimethylisoxazol-4-yl)-1-[(1S)-1-(2-pyridyl)ethyl]pyrrolo[3,2-b]pyridin-3-yl]benzoic acid]",,,,IC50 (bromodomain): < 10 µM; IC50 (MV-4-11 cells; [4]): < 1 µM
"COC(=O)c1ccc(-c2cn(Cc3ccccn3)c3cc(-c4c(C)noc4C)cnc23)cc1OC [P-0954, methyl 4-[6-(3,5-dimethylisoxazol-4-yl)-1-(2-pyridylmethyl)pyrrolo[3,2-b]pyridin-3-yl]-2-methoxy-benzoate]",< 1 µM,,,
"Cc1noc(C)c1-c1cnc2c(-c3ccc(C(=O)O)cc3)cn([C@H](C)c3ccccn3)c2c1 [P-0510, 4-[6-(3,5-dimethylisoxazol-4-yl)-1-[(1R)-1-(2-pyridyl)ethyl]pyrrolo[3,2-b]pyridin-3-yl]benzoic acid]",,,,IC50 (bromodomain): < 10 µM; IC50 (MV-4-11 cells; [4]): < 1 µM
"Cc1noc(C)c1-c1cnc2c(-c3ccc(C(=O)O)cc3)cn(C(C)c3ccccn3)c2c1 (stereo not shown) [P-0369, 4-[6-(3,5-dimethylisoxazol-4-yl)-1-[1-(2-pyridyl)ethyl]pyrrolo[3,2-b]pyridin-3-yl]benzoic acid]",,,,IC50 (bromodomain): < 10 µM; IC50 (MV-4-11 cells; [4]): < 1 µM
"Cc1noc(C)c1-c1cnc2c(-c3ccc(C(F)F)cc3)cn(CC3CCC(F)(F)CC3)c2c1 [P-0608, 4-[1-[(4,4-difluorocyclohexyl)methyl]-3-[4-(difluoromethyl)phenyl]pyrrolo[3,2-b]pyridin-6-yl]-3,5-dimethyl-isoxazole]",,< 1 µM,< 10 µM,
"Cc1noc(C)c1-c1cnc2c(-c3ccc(C(=O)O)cc3)cn(CC3CC4(CCC4)C3)c2c1 [P-0603, 4-[6-(3,5-dimethylisoxazol-4-yl)-1-(spiro[3.3]heptan-6-ylmethyl)pyrrolo[3,2-b]pyridin-3-yl]benzoic acid]",,< 1 µM,< 10 µM,
